# In patent publication US10005720B2, “Compounds useful for the treatment of metabolic disorders and synthesis of the same” (NORTH CAROLINA CENTRAL UNIVERSITY, priority 2013, dated 2018):
# “Also recorded” adds a separate entry of the source.
# Experiments:
# CAR3 = CAR3 level in liver of treated mice (Western blot, 2D-DiGE); type: in vivo, mouse
# From the text: (§1) The expression and proteomic studies were implemented with particular interest in lipid/energy metabolism pathways.
# FGF21 = FGF21 expression in liver of treated C57-DIO mice (Western blot, qPCR, microarray); type: in vivo, mouse
# From the text: as §1
# [1] = system: genes involved in lipid/energy metabolism; assay: Gene chip microarray analysis of sham and drug treated liver; type: in vivo, mouse; details: treated vs sham liver
# From the text: The expression and proteomic studies were implemented with particular interest in lipid/energy metabolism pathways. […] We are also particularly interested in Car3, since this gene represents ˜30% of soluble protein in adipose tissue, goes up in adipocytes (˜2-fold) in response to high fat diet, but goes down in the liver dramatically in response to energetic starvation. Finally, Car3 is negatively regulated by insulin signaling and thus might reflect insulin sensitivity. FGF21 and Car3 are good biomarkers for liver function in response to metabolic changes.
# [2] = system: C57-diet induced obesity (DIO) mouse model; assay: Histological scoring of hepatic steatosis in the C57-DIO mouse model; type: in vivo; details: C57-DIO mice; for fatty liver phenotype / hepatic steatosis by liver histology (H&E): once-daily IP injection for 12 days, 10 mg/kg body weight
# From the text: The C57-diet induced obesity (DIO) mouse model was used in this study as a disease model for fatty liver disease and hepatic insulin resistance (FIG. 4). It was observed that eighty percent of the C57-DIO animals develop the fatty liver phenotype at 20-weeks, which highly correlates with insulin resistance penetrance and poor glycemic control. […] In humans, progressive accumulation of hepatic triglycerides is associated with metabolic syndrome/T2D and leads to impairment of insulin action in the liver. The two guiding phenotypic indicators of test compound efficacy in earlier studies were: histological scoring of hepatic steatosis, and intraperitoneal (IP) glucose tolerance.
# Singly housed mice raised on a 60%-fat diet (20-week old males purchased from Sax labs) with extensive fatty liver were treated with the test compound for 12 days via daily intraperitoneal injection (IP). […] In addition, coats of treated animals were drier (FIG. 4B vs. C), consistent with reduction in triglycerides (also observed in the DGAT1 mouse knockout with dry coat).
# During initial animal screening, we developed a quantitative histomorphometry platform software using components of the open-source CellProfiler software for automatically quantifying/scoring liver lipid content through lipid droplet detection in entire liver sections. In brief, entire H&E liver slides are scanned at 400× total magnification using an Aperio ScanScope slide scanner. For automated lipid phenotyping, we 1) detect entire pieces of tissue, 2) identify individual lipid droplets based on size and shape and, 3) measure mean droplet size and droplet density per […]. This automated quantitation of liver lipid phenotype, supervised and verified by a trained veterinary pathologist (PI Yi), offers an unbiased and simple method for comparing compound effects. Results from manual scoring of average degree of steatosis in cohorts are; Sham-90%, B127443-27% and are in good agreement with machine-aided scoring results as shown in FIG. 6.
# [3] = system: C57-diet induced obesity mouse model; assay: Intraperitoneal glucose tolerance testing (IP-GTT) in C57-DIO mice; type: in vivo
# Protocol: Glucose tolerance testing (IP-GTT) was performed via an IP injection of a 10% glucose solution at […] body weight within a 10 mL/kg body weight volume. Blood glucose was monitored pre and post injection at 15-minute intervals for 60 minutes using a standard glucometer. IP-GTT was chosen over oral GTT to bypass gut hormone signaling (GLP-1) for a more direct assessment of hepatic insulin resistance. IPGTT was performed on animals both prior to and after the 12-day test compound administration period to glean both individual animal responses and cohort averaged responses.
# [4] = drug treated at 10 mg/kg vs. vehicle
# [5] = trials on large numbers of mice
smiles,measurement,setting,value
"O=C(Nc1ccc([N+](=O)[O-])cc1Cl)c1cc(Cl)ccc1O [Example B-127443, Niclosamide]","CAR3 in liver, Western blot",CAR3; [4],significant reduction
same,"CAR3 protein level in liver, comparative proteomics (2D-DiGE)",CAR3; livers of treated mice,significantly lower levels of CAR3 protein
same,Car3 expression,CAR3; [5],decreasing
same,"FGF21 expression in liver, Western blot",FGF21; [4],stimulation
same,FGF21 expression,FGF21; [5],increases
same,"expression of genes involved in lipid/energy metabolism (FGF21, Fitm1, Fitm2, CideC, Cyp7A1, chn)",[1],significantly changed the expression of many genes involved in lipid/energy metabolism
same,fatty liver phenotype / hepatic steatosis by liver histology (H&E),[2]; 10 mg/kg,dramatic therapeutic effects; also recorded: reversal of fatty phenotype
same,fatty liver phenotype / hepatic steatosis by liver histology (H&E),"[2]; listed as B127443, 10 mg/kg",efficacious; also recorded: robust responses
same,"average degree of steatosis in cohorts, manual scoring",[2]; Sham 90%,27%
same,"glucose tolerance (IP-GTT), individual animals before and after treatment","[3]; 12-day treatment with 5 mg/kg, Animals 1,3",improved glucose tolerance
same,glucose tolerance (IP-GTT),"[3]; 12-day treatment, 10 mg/kg, cohort average (n=6) vs sham, 10 mg/kg",markedly improved; also recorded: marked improvement in glucose tolerance
